Active and inactive are the calls of the source. The calls are words filed in the database; no cut-off is given here.
Key:
[1] = Cmax in mice after 10 mg/kg oral dose; assay type: ADME, organism-based; set-up: dose 10 mg/kg, route oral; conditions: mouse, in vivo
[2] = Oral bioavailability after administration of a dose of 10 mg/kg; assay type: ADME, organism-based; conditions: in vivo
[3] = the half-life (t1/2) in mice after a dose of 10 mg/kg; assay type: ADME, organism-based; set-up: dose 10 mg/kg; conditions: mouse, in vivo
[4] = molecular target: T1, Oxysterols receptor LXR-alpha (Homo sapiens, UniProt Q13133); experiment: Ligand-dependent recruitment of steroid receptor co-activator 1 (SRC1) to Liver X receptor-alpha
T1 sequence (Q13133 whole entry): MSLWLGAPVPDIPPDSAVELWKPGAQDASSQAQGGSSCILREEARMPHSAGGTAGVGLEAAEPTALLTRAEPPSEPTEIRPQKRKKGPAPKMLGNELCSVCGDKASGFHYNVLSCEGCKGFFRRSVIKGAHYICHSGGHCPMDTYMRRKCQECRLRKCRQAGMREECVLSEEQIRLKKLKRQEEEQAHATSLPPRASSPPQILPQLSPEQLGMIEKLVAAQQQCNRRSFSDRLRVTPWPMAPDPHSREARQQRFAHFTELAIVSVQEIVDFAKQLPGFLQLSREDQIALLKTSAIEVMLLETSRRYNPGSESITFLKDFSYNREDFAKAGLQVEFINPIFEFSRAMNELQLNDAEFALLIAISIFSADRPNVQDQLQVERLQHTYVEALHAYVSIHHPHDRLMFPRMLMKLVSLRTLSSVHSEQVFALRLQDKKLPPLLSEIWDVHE

[5] = molecular target: T1, Oxysterols receptor LXR-alpha; experiment: Effective concentration in LXR alpha-Gal4 receptor gene assay
[6] = molecular target: T2, Oxysterols receptor LXR-alpha (Homo sapiens) (UniProt Q13133)
T2 sequence (whole entry): T1 sequence (Q13133 whole entry)
Description: Relative efficacy compared to 24(S),25-epoxy cholesterol in LXR alpha-Gal4 receptor gene assay

[7] = molecular target: T2, Oxysterols receptor LXR-alpha (Homo sapiens); remark: listed apart in the source
Description: Relative efficacy compared to 24(S),25-epoxy cholesterol in Liver X receptor-alpha ligand-sensing assay

[8] = molecular target: T2, Oxysterols receptor LXR-alpha (Homo sapiens); experiment: Effective concentration in LXR alpha-Gal4 receptor gene assay; inactive at 10 uM

SMILES	Cmax [1] [ng/mL]	bioavailability [2] [%]	half-life [3] [h]	EC50 [4] [nM]	EC50 [5] [nM]	RE [6]	RE [7]	IA [8]
O=C(O)Cc1cccc(OCCCN(Cc2cccc(C(F)(F)F)c2Cl)CC(c2ccccc2)c2ccccc2)c1	12700	70	2	125	190	1.7	1	
NC(=O)Cc1cccc(OCCCN(Cc2cccc(C(F)(F)F)c2)CC(c2ccccc2)c2ccccc2)c1				85	650	0.3	0.7	
COc1ccc(CN(CCCOc2cccc(CC(N)=O)c2)CC(c2ccccc2)c2ccccc2)c(F)c1				190	700	0.4	0.9	
COc1ccc(CN(CCCOc2cccc(CC(=O)O)c2)CC(c2ccccc2)c2ccccc2)cc1				860	8000	0.9	0.8	
NC(=O)Cc1cccc(OCCCN(Cc2cccc(C(F)(F)F)c2Cl)CC(c2ccccc2)c2ccccc2)c1				45	425	1.5	1.1	
C[C@H](CC[C@@H]1OC1(C)C)[C@H]1CC[C@H]2[C@@H]3CC=C4C[C@@H](O)CC[C@]4(C)[C@H]3CC[C@]12C [24(S),25-EPOXYCHOLESTEROL]				95	3000	1	1	
COc1ccc(CN(CCCOc2cccc(C(N)=O)c2)CC(c2ccccc2)c2ccccc2)cc1OC				260			0.2	
NC(=O)Cc1cccc(OCCCN(Cc2ccc(F)c(C(F)(F)F)c2)CC(c2ccccc2)c2ccccc2)c1				85	945	0.4	0.9	
COc1ccc(CN(CCCOc2cccc(CC(N)=O)c2)CC(c2ccccc2)c2ccccc2)cc1F				250	910	0.5	0.7	
O=S(=O)(c1ccccc1)N(CC(F)(F)F)c1ccc(C(O)(C(F)(F)F)C(F)(F)F)cc1						2.5	1	
COc1ccc(CN(CCCOc2cccc(CC(N)=O)c2)CC(c2ccccc2)c2ccccc2)cc1				260			0.8	inactive
COc1ccc(CN(CCCOc2cccc(CC(N)=O)c2)CC(c2ccccc2)c2ccccc2)c(OC)c1				660	4000	0.6	0.7	
